# According to article PMC9646673, “A Novel, Orally Bioavailable, Small-Molecule Inhibitor of PCSK9 With Significant Cholesterol-Lowering Properties In Vivo” (Journal of Lipid Research, 2022):
# How the values were obtained:
# APOE∗3-Leiden.CETP mice [1] = assay: First efficacy study: body weight, food intake, plasma AST and ALT; format: in vivo, mouse; set-up: Body weight (mean ± SD) / Food intake (mean ± SD): unit not given here; details: for Plasma ALT / Plasma AST: group-pooled
# From the text: (§1) Animal experiments were approved by the governmental central committee on animal experiments (AVD5010020172064) and TNO’s animal welfare body (TNO-471 and TNO-482). Female APOE∗3-Leiden.CETP transgenic mice (11–16 weeks of age) were bred at the animal facility of TNO-InnoSer (Leiden, The Netherlands). Female animals were used in this study as they are more responsive to dietary cholesterol and fat than males and therefore typically develop atherosclerosis more rapidly than male APOE∗3-Leiden and APOE∗3-Leiden.CETP mice on cholesterol-containing diets ([33], [34]). Although measurements of atherosclerosis were not included as part of the present study, females were used with the prospect in mind that atherosclerosis studies will follow. The mice were housed under standard conditions that included 12 h light-dark cycles and access to a WTD and sterilized tap water ad libitum. Body weight, food intake, and clinical signs of behavior were monitored throughout the studies. […] Time t = 0 (weeks) was designated as the time at which mice were matched into groups after the 3-week run-in period in each efficacy study.
# (§2) Treatment times were around 8:00 am and 4:00 pm each day. Throughout the in-life phase of the study, body weight and food intake (per cage) were measured at regular predetermined intervals while blood samples were collected every 7 days. The last gavage was administered on day 27. On day 28, the mice were sacrificed by CO2 asphyxiation, EDTA-plasma was obtained via heart puncture, and the liver was weighed and collected. Throughout the study, plasma cholesterol, triglycerides, HDL-C, lipoprotein profiles, PCSK9 expression levels, aspartate transaminase levels (AST), and alanine transaminase levels (ALT) were measured as described below.
# (§3) In both studies, blood samples were collected at weekly intervals via tail vein sampling after fasting the mice for 4 h. Blood samples were centrifugated (4500 g at 4°C), and the plasma was collected for the following analyses. Total plasma cholesterol levels were determined using a Cholesterol CHOD-PAP kit according to the manufacturer’s instructions. Plasma HDL-C levels were determined by first precipitating apoB-containing lipids using PEG 6000/glycine and then utilizing the Cholesterol CHOD-PAP kit ([35]). Non-HDL-C levels were determined by subtracting HDL-C levels from total cholesterol levels ([32]). Group-pooled lipoprotein profiles were determined by FPLC analysis using an AKTApurifier 10 FPLC system (GE Healthcare, Chicago, IL). Plasma PCSK9 levels were determined using a Mouse PCSK9 Quantikine ELISA kit as per the manufacturer’s protocol. ALT and AST levels of group-pooled samples were measured using the Roche Reflotron Plus System (Mannheim, Germany).
# APOE∗3-Leiden.CETP mice [2] = assay: Fecal bile acid and neutral sterol content, cholesterol balance
# Description: In a subsequent efficacy study, mice were treated identically to the first study with the following modifications. Mice in group 1 received vehicle solution (5% DMSO, 5% Solutol HS15, and 90% saline) twice daily by oral gavage. […] The study ran for a total of 35 days with blood and tissue collection and analysis performed as described below.
# Analyses of fecal neutral sterol and bile acid contents were performed by gas chromatographic analysis as previously detailed ([37], [38]). Per treatment group, two cages of four mice per cage were used, with feces collected twice per cage during the last week of the study. The net cholesterol uptake, or cholesterol balance, was defined as the dietary cholesterol intake (food intake measured weekly) minus the summed fecal output of neutral sterols and bile acids.
# [3] = tested on: plasma PCSK9 protein levels; assay: First efficacy study: plasma total PCSK9 (ELISA); format: in vivo, mouse; details: 50 mg/kg BID PO, day 28
# From the text: Animal experiments were approved by the governmental central committee on animal experiments (AVD5010020172064) and TNO’s animal welfare body (TNO-471 and TNO-482). Female APOE∗3-Leiden.CETP transgenic mice (11–16 weeks of age) were bred at the animal facility of TNO-InnoSer (Leiden, The Netherlands). Female animals were used in this study as they are more responsive to dietary cholesterol and fat than males and therefore typically develop atherosclerosis more rapidly than male APOE∗3-Leiden and APOE∗3-Leiden.CETP mice on cholesterol-containing diets ([33], [34]). […] Body weight, food intake, and clinical signs of behavior were monitored throughout the studies. […]
# as §2, with “The last gavage was administered on day 27. On day 28, the mice were sacrificed by CO2 asphyxiation, EDTA-plasma was obtained via heart puncture, and the liver was weighed and collected.” left out
# In both studies, blood samples were collected at weekly intervals via tail vein sampling after fasting the mice for 4 h. […] Total plasma cholesterol levels were determined using a Cholesterol CHOD-PAP kit according to the manufacturer’s instructions. […]
# APOE∗3-Leiden.CETP mice [4] = assay: Second efficacy study: body weight, food intake, plasma ALT and AST; format: in vivo, mouse; set-up: Body weight (mean ± SD) / Food intake (mean ± SD): unit not given here; details: NYX-PCSK9i 50 mg/kg BID PO, atorvastatin […]; for Plasma ALT / Plasma AST: group-pooled
# From the text: as §1, §3
# [5] = tested on: Hmgcr, Srebf2, Pcsk9, Ldlr, Mttp transcripts in liver tissue; assay: Hepatic gene transcription (qPCR), day 35; format: in vivo, mouse; details: 50 mg/kg BID PO, 5 weeks
# Description: The transcript levels of select genes in the liver tissue of mice treated with either vehicle or NYX-PCSK9i were analyzed. RNA was isolated from liver tissue using an RNA STAT-60 kit as per the manufacturer’s protocol. RNA concentrations were determined using a NanoDrop 2000 spectrophotometer (Thermo Fisher Scientific, Rockford, IL), and up to 2 μg of RNA was used as a template for cDNA synthesis using a High-capacity RNA-to-cDNA kit according to the manufacturer’s instructions. Quantitative PCR was performed with fluorescein amidite-labeled TaqMan® Assay primers and TaqMan® Fast Universal PCR Master Mix using a QuantStudio 6 Flex Real-Time PCR system (Applied Biosystems). DNA was amplified by applying a standard cycle protocol with an annealing temperature of 60°C and 40 cycles of amplification. Differential transcriptional activity was calculated using the 2^–ΔΔCt method.
# [6] = 30 mg/kg BID PO, day 0 (baseline)
# [7] = 50 mg/kg BID PO, day 0 (baseline)
compound,measurement,setting,value
Cc1cn(-c2cc(CN3CCC[C@H](N)C3)cc(NC(=O)c3cc(-c4ccccc4)ccn3)c2)cn1 [NYX-PCSK9i],Body weight (mean ± SD),APOE∗3-Leiden.CETP mice [1]; [6],21.9 ± 1.3
same,Food intake (mean ± SD),APOE∗3-Leiden.CETP mice [1]; [6],3.3 ± 0.3
same,Body weight (mean ± SD),"APOE∗3-Leiden.CETP mice [1]; 30 mg/kg BID PO, day 7",22.0 ± 1.6
same,Food intake (mean ± SD),"APOE∗3-Leiden.CETP mice [1]; 30 mg/kg BID PO, day 7",2.7 ± 0.3
same,Food intake (mean ± SD),"APOE∗3-Leiden.CETP mice [1]; 30 mg/kg BID PO, day 14",2.6 ± 0.6
same,Food intake (mean ± SD),"APOE∗3-Leiden.CETP mice [1]; 30 mg/kg BID PO, day 21",2.4 ± 0.2
same,Body weight (mean ± SD),"APOE∗3-Leiden.CETP mice [1]; 30 mg/kg BID PO, day 28",22.0 ± 1.1
same,Food intake (mean ± SD),"APOE∗3-Leiden.CETP mice [1]; 30 mg/kg BID PO, day 28",3.0 ± 0.1
same,Food intake (mean ± SD),APOE∗3-Leiden.CETP mice [1]; [7],3.3 ± 0.3
same,Body weight (mean ± SD),"APOE∗3-Leiden.CETP mice [1]; 50 mg/kg BID PO, day 7",21.8 ± 1.3
same,Food intake (mean ± SD),"APOE∗3-Leiden.CETP mice [1]; 50 mg/kg BID PO, day 7",2.6 ± 0.0
same,Body weight (mean ± SD),"APOE∗3-Leiden.CETP mice [1]; 50 mg/kg BID PO, day 14",21.8 ± 1.1
same,Food intake (mean ± SD),"APOE∗3-Leiden.CETP mice [1]; 50 mg/kg BID PO, day 14",2.9 ± 0.0
same,Body weight (mean ± SD),"APOE∗3-Leiden.CETP mice [1]; 50 mg/kg BID PO, day 21",21.5 ± 1.4
same,Food intake (mean ± SD),"APOE∗3-Leiden.CETP mice [1]; 50 mg/kg BID PO, day 21",2.7 ± 0.0
same,Body weight (mean ± SD),"APOE∗3-Leiden.CETP mice [1]; 50 mg/kg BID PO, day 28",21.6 ± 1.1
same,Food intake (mean ± SD),"APOE∗3-Leiden.CETP mice [1]; 50 mg/kg BID PO, day 28",2.7 ± 0.1
same,plasma levels of the liver enzymes AST and ALT compared to vehicle,"APOE∗3-Leiden.CETP mice [1]; 30 and 50 mg/kg BID PO, 28 days",remained stable
same,Plasma ALT,APOE∗3-Leiden.CETP mice [1]; [6],76.8 U/L
same,Plasma AST,APOE∗3-Leiden.CETP mice [1]; [6],185.2 U/L
same,Plasma ALT,"APOE∗3-Leiden.CETP mice [1]; 30 mg/kg BID PO, day 7",69.6 U/L
same,Plasma AST,"APOE∗3-Leiden.CETP mice [1]; 30 mg/kg BID PO, day 7",175.2 U/L
same,Plasma ALT,"APOE∗3-Leiden.CETP mice [1]; 30 mg/kg BID PO, day 14",70.0 U/L
same,Plasma AST,"APOE∗3-Leiden.CETP mice [1]; 30 mg/kg BID PO, day 14",158.8 U/L
same,Plasma ALT,"APOE∗3-Leiden.CETP mice [1]; 30 mg/kg BID PO, day 21",55.6 U/L
same,Plasma AST,"APOE∗3-Leiden.CETP mice [1]; 30 mg/kg BID PO, day 21",156.8 U/L
same,Plasma ALT,"APOE∗3-Leiden.CETP mice [1]; 30 mg/kg BID PO, day 28",35.6 U/L
same,Plasma AST,"APOE∗3-Leiden.CETP mice [1]; 30 mg/kg BID PO, day 28",84 U/L
same,Plasma ALT,APOE∗3-Leiden.CETP mice [1]; [7],70.0 U/L
same,Plasma AST,APOE∗3-Leiden.CETP mice [1]; [7],170.8 U/L
same,Plasma ALT,"APOE∗3-Leiden.CETP mice [1]; 50 mg/kg BID PO, day 7",74.8 U/L
same,Plasma AST,"APOE∗3-Leiden.CETP mice [1]; 50 mg/kg BID PO, day 7",181.2 U/L
same,Plasma ALT,"APOE∗3-Leiden.CETP mice [1]; 50 mg/kg BID PO, day 14",56 U/L
same,Plasma AST,"APOE∗3-Leiden.CETP mice [1]; 50 mg/kg BID PO, day 14",147.6 U/L
same,Plasma ALT,"APOE∗3-Leiden.CETP mice [1]; 50 mg/kg BID PO, day 21",47.6 U/L
same,Plasma AST,"APOE∗3-Leiden.CETP mice [1]; 50 mg/kg BID PO, day 21",120.4 U/L
same,Plasma ALT,"APOE∗3-Leiden.CETP mice [1]; 50 mg/kg BID PO, day 28",38 U/L
same,Plasma AST,"APOE∗3-Leiden.CETP mice [1]; 50 mg/kg BID PO, day 28",107 U/L
same,share of fecal neutral sterols that was cholesterol,APOE∗3-Leiden.CETP mice [2]; data not shown,more than 95%
same,cholesterol balance (dietary cholesterol intake minus fecal bile acids and neutral sterols),APOE∗3-Leiden.CETP mice [2]; final week of 35-day study,negative
same,maximal increase in plasma PCSK9 protein levels,[3],2 fold
same,Body weight (mean ± SD),APOE∗3-Leiden.CETP mice [4]; day 0 (baseline),21.9 ± 1.7
same,Food intake (mean ± SD),APOE∗3-Leiden.CETP mice [4]; day 0 (baseline),3.4 ± 0.3
same,Food intake (mean ± SD),APOE∗3-Leiden.CETP mice [4]; day 7,3.5 ± 0.3
same,Body weight (mean ± SD),APOE∗3-Leiden.CETP mice [4]; day 14,23.0 ± 2.4
same,Food intake (mean ± SD),APOE∗3-Leiden.CETP mice [4]; day 14,3.4 ± 0.0
same,Body weight (mean ± SD),APOE∗3-Leiden.CETP mice [4]; day 21,22.4 ± 2.0
same,Food intake (mean ± SD),APOE∗3-Leiden.CETP mice [4]; day 21,2.7 ± 0.0
same,Body weight (mean ± SD),APOE∗3-Leiden.CETP mice [4]; day 28,21.9 ± 2.1
same,Food intake (mean ± SD),APOE∗3-Leiden.CETP mice [4]; day 28,2.7 ± 0.1
same,Food intake (mean ± SD),APOE∗3-Leiden.CETP mice [4]; day 35,2.7 ± 0.3
same,Plasma ALT,APOE∗3-Leiden.CETP mice [4]; day 0 (baseline),91 U/L
same,Plasma AST,APOE∗3-Leiden.CETP mice [4]; day 0 (baseline),91 U/L
same,Plasma ALT,APOE∗3-Leiden.CETP mice [4]; day 14,84 U/L
same,Plasma AST,APOE∗3-Leiden.CETP mice [4]; day 14,84 U/L
same,Plasma ALT,APOE∗3-Leiden.CETP mice [4]; day 28,36 U/L
same,Plasma AST,APOE∗3-Leiden.CETP mice [4]; day 28,36 U/L
same,Plasma ALT,APOE∗3-Leiden.CETP mice [4]; day 35,42 U/L
same,Plasma AST,APOE∗3-Leiden.CETP mice [4]; day 35,42 U/L
same,increase in hepatic transcription of Pcsk9,[5],61%
same,upregulation of hepatic Srebf2 transcript,[5],33%
